Laboratory results as given in PMC5502478 (ACS chemical biology, 2016).

How the values were obtained:
Format in all cases: cell-based
[1] = test system: Candida glabrata ATCC 2001; experiment: MIC, serial dilution antifungal assay
[2] = test system: Candida albicans ATCC 10231; settings: compared to 1 and 2
Human erythrocytes = experiment: Hemolytic assay; settings: tested concentrations

Row | Substance | fold improvement of MIC against C. glabrata compared to 1 [1] [fold] | fold more potent (MIC) than wild-type fermentation products 1 and 2 against C. albicans [2] [fold] | hemolytic activity relative to pneumocandin B0 (overall) (Human erythrocytes)
1 | pneumocandin I [Compound 5] | 32 | 8 | comparable to pneumocandin B0
2 | pneumocandin K [Compound 7] | 32 | 4 | higher hemolytic activity than pneumocandin B0
